What was measured:
[1] = molecular target: DGKζ (Homo sapiens (Human), UniProt Q13574); assay: Biochemical DGK IC50 assay, DGKζ ADP-Glo assay; conditions: 0.5 nM enzyme, 140 μM ATP, 80 μM DAG; read-out: DGKζ ADP-Glo assay IC50
Procedure: (§1) Enzymatic reactions of DGKζ, DGKα and DGKδ were performed using ADP-Glo assay with lipid micelle substrate. […] Full length DGKα (D21-10BG, SignalChem) and full length DGKδ (D23-10G, SignalChem) were purchased. Lipid micelle was prepared by dissolving DAG (Sigma, 317505-10MG) and PS (Sigma, P7769-100MG) with chloroform which was furtherly removed by rotary evaporation. The resulted product was resuspended in buffer containing 25 mM HEPES pH 7.0, 0.5 mM EDTA and 160 mM Octyl β-D glucopyranoside by vigorous mixing and ultrasonic (IID, Scientz).
(§2) The ranges of compounds final concentration were 1.55˜10000 nM or 23.3˜150000 nM. 3 μL 2× enzyme solution was added to wells.
Human His-TEV-DGK-zeta-pFastBac1 and human baculovirus samples was generated using the Bac-to-Bac baculovirus expression system (Invitrogen) according to the manufacturer's protocol. The DNA used for expression of DGK-zeta, have SEQ ID Nos: 1. Baculovirus amplification was achieved using infected SF9 cells at 1:2000 virus/cells ratios, and grown for 96 hours at 27° C. post-transfected.
The expression scaled up for each protein was carried out in the […] from CORNING. 4 L of 3×10^6 cells/mL Sf9 cells (Expression System, Invitrogen) grown in SF900™ II SFM insect medium (Expression System) was infected with virus stock at 1:200 virus/cells ratio, and grown for 48 hours at 27° C. post-transfection. The infected cell culture was harvested by centrifugation at 6000 rpm for 15 min 4° C. in a SORVALL LYNX6000 centrifuge. The cell pellets were stored at −80° C.
Full length human DGKζ produced as described above, was purified from Sf9 baculovirus-infected insect cell paste. The cells were lysed using sonication method, and the lysates were clarified by centrifugation.

[2] = molecular target: DGKα (Homo sapiens (Human), UniProt P23743); assay: Biochemical DGK IC50 assay, DGKα ADP-Glo assay; conditions: 7.5 nM enzyme, 140 μM ATP, 80 μM DAG
Sequence of DGKα (P23743 whole entry): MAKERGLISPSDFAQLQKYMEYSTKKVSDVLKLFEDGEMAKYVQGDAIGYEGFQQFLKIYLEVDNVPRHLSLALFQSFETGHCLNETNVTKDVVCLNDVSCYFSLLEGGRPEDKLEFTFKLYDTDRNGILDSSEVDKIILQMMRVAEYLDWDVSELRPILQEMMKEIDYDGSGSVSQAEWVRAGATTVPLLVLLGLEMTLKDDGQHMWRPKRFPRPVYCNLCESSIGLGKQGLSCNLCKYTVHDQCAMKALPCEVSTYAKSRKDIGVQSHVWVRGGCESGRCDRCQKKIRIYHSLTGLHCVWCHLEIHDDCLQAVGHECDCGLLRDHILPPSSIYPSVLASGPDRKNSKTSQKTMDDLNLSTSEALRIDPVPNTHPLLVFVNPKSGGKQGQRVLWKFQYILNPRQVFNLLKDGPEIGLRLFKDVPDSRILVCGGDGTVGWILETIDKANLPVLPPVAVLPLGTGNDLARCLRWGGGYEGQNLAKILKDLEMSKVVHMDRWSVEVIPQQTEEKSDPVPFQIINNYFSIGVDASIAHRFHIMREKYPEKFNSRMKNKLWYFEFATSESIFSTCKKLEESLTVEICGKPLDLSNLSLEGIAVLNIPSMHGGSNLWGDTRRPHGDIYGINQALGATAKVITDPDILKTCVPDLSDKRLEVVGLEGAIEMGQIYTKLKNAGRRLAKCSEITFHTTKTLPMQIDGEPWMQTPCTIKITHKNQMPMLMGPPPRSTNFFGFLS
Procedure: as §1, §2

Sequence of DGKζ (Q13574 other isoform, or with tags, fused parts or gaps): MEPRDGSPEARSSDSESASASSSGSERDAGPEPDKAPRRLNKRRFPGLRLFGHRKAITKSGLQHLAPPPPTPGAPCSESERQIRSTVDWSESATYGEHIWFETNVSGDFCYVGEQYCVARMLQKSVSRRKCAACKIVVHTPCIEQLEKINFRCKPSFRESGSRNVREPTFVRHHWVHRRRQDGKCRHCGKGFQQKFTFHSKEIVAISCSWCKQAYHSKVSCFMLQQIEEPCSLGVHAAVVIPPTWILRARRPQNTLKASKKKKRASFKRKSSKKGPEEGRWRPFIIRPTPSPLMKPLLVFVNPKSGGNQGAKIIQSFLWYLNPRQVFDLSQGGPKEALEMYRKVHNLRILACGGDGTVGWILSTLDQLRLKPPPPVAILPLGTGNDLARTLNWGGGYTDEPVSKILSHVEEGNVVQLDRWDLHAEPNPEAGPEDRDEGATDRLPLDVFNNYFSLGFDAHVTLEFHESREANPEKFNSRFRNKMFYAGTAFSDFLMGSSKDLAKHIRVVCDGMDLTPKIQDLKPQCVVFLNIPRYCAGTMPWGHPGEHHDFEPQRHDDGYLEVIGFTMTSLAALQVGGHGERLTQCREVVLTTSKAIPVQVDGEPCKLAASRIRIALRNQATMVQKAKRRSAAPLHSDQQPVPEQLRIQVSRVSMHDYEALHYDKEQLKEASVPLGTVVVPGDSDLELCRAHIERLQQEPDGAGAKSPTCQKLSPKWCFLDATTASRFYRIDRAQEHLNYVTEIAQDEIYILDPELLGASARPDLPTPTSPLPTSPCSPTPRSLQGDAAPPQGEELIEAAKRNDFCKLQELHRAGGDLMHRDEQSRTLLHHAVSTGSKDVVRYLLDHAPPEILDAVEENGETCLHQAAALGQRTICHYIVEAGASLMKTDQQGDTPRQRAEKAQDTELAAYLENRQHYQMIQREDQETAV

Row | SMILES | IC50 [1] [µM] | IC50 [2] [µM]
1 | C[C@@H](c1ccc2nccnc2c1)N1CCN(c2cc(=O)n(C)c3cn(CC#N)nc23)CC1C(N)=O (single isomer, unassigned) [Compound A198a] | > 10 | > 10
2 | C[C@H](c1ccc2nccnc2c1)N1CCN(c2cc(=O)n(C)c3cn(CC#N)nc23)CC1C(N)=O (single isomer, unassigned) [Compound A198b] | > 10 | > 10
3 | CC[C@H]1CN(C(C)c2ccc(C3CC3)cc2OC)[C@H](CC)CN1c1cc(=O)n(C)c2cn(CC#N)nc12 (single isomer, unassigned) [Compound A199a] | 2.46 | > 10
4 | CC[C@H]1CN(C(C)c2ccc(C3CC3)cc2OC)[C@H](CC)CN1c1cc(=O)n(C)c2cn(CC#N)nc12 (single isomer, unassigned) [Compound A199b] | 0.803 | > 10
5 | CC[C@@H]1CN(c2c(C#N)c(=O)[nH]c3cn(CC#N)nc23)[C@@H](C)CN1C(C)c1ccc2nccnc2c1 (single isomer, unassigned) [Compound A200a] | 0.102 | 7.08
6 | CC[C@@H]1CN(c2c(C#N)c(=O)[nH]c3cn(CC#N)nc23)[C@@H](C)CN1C(C)c1ccc2nccnc2c1 (single isomer, unassigned) [Compound A200b] | 5.38 | > 10
7 | CC[C@H]1CN(C(C)c2c(F)cc(F)cc2OC)[C@H](CC)CN1c1cc(=O)n(C)c2cn(CC#N)nc12 (single isomer, unassigned) [Compound A201a] | 0.043 | > 10
8 | CC[C@H]1CN(C(C)c2c(F)cc(F)cc2OC)[C@H](CC)CN1c1cc(=O)n(C)c2cn(CC#N)nc12 (single isomer, unassigned) [Compound A201b] | > 10 | > 10
9 | CC[C@@H]1CN(c2cc(=O)n(C)c3cn(CC#N)nc23)[C@@H](C)CN1C(C)c1ccc(C(F)(F)F)cc1F (single isomer, unassigned) [Compound A202a] | 0.176 | 0.7
10 | CC[C@@H]1CN(c2cc(=O)n(C)c3cn(CC#N)nc23)[C@@H](C)CN1C(C)c1ccc(C(F)(F)F)cc1F (single isomer, unassigned) [Compound A202b] | 3.03 | 1.28
11 | CC[C@H]1CN(C(C)c2nc3cc(C(F)(F)F)ccc3n2CC)[C@H](CC)CN1c1cc(=O)n(C)c2cn(CC#N)nc12 (single isomer, unassigned) [Compound A203a] | 2.21 | > 10
12 | CC[C@H]1CN(C(C)c2nc3cc(C(F)(F)F)ccc3n2CC)[C@H](CC)CN1c1cc(=O)n(C)c2cn(CC#N)nc12 (single isomer, unassigned) [Compound A203b] | 0.233 | > 10
13 | CC[C@H]1CN(C(C)c2nc3ccc(C(F)(F)F)cc3n2CC)[C@H](CC)CN1c1cc(=O)n(C)c2cn(CC#N)nc12 (single isomer, unassigned) [Compound A204a] | 3.29 | > 10
14 | CC[C@H]1CN(C(C)c2nc3ccc(C(F)(F)F)cc3n2CC)[C@H](CC)CN1c1cc(=O)n(C)c2cn(CC#N)nc12 (single isomer, unassigned) [Compound A204b] | 0.298 | > 10
15 | CCc1c(C(C)N2C[C@H](CC)N(c3cc(=O)n(C)c4cn(CC#N)nc34)C[C@H]2CC)cnn1C (single isomer, unassigned) [Compound A213a] | 1.36 | > 10
16 | CCc1c(C(C)N2C[C@H](CC)N(c3cc(=O)n(C)c4cn(CC#N)nc34)C[C@H]2CC)cnn1C (single isomer, unassigned) [Compound A213b] | > 10 | > 10
17 | CC[C@H]1CN([C@H](C)c2nc3ncccc3n2CC)[C@H](CC)CN1c1cc(=O)n(C)c2cn(CC#N)nc12 (single isomer, unassigned) [Compound A215a] | > 10 | > 10
18 | CC[C@H]1CN([C@@H](C)c2nc3ncccc3n2CC)[C@H](CC)CN1c1cc(=O)n(C)c2cn(CC#N)nc12 (single isomer, unassigned) [Compound A215b] | 1.14 | > 10
19 | CC[C@@H]1CN(c2cc(=O)n(C)c3cn(CC#N)nc23)[C@@H](C)CN1C(C)c1ccc(F)cc1C(F)(F)F (single isomer, unassigned) [Compound A218b] | 3.96 | > 10
20 | CC(c1ccc2nccnc2c1)N1C[C@H](C)N(c2nc(=O)n(C)c3cn(CC#N)nc23)C[C@H]1C (single isomer, unassigned) [Compound A220, 2-(7-((2S,5R)-2,5-dimethyl-4-((S)-1-(quinoxalin-6-yl)ethyl)piperazin-1-yl)-4-methyl-5-oxo-4,5-dihydro-2H-pyrazolo[4,3-d]pyrimidin-2-yl)acetonitrile, or 2-(7-((2S,5R)-2,5-dimethyl-4-((R)-1-(quinoxalin-6-yl)ethyl)piperazin-1-yl)-4-methyl-5-oxo-4,5-dihydro-2H-pyrazolo[4,3-d]pyrimidin-2-yl)acetonitrile] | 0.067 | 8.69
21 | CC[C@@H]1CN(c2cc(=O)n(C)c3cn(CC)nc23)[C@@H](C)CN1C(C)c1ccc2nccnc2c1 (single isomer, unassigned) [Compound A221a] | 0.216 | 1.09
22 | CC[C@@H]1CN(c2cc(=O)n(C)c3cn(CC)nc23)[C@@H](C)CN1C(C)c1ccc2nccnc2c1 (single isomer, unassigned) [Compound A221b] | > 10 | 2.37
23 | CC[C@@H]1CN(c2cc(=O)n(C)c3cn(CC(F)F)nc23)[C@@H](C)CN1C(C)c1ccc2nccnc2c1 (single isomer, unassigned) [Compound A222a] | 0.452 | 5.25
24 | CC[C@@H]1CN(c2cc(=O)n(C)c3cn(CC(F)F)nc23)[C@@H](C)CN1C(C)c1ccc2nccnc2c1 (single isomer, unassigned) [Compound A222b] | > 10 | 7.42

Continued, values first:

Row | IC50 [1] [µM] | IC50 [2] [µM] | SMILES
25 | 0.122 | 1.09 | CC[C@H]1CN(C(C)c2ccc(F)cc2C#N)[C@H](CC)CN1c1cc(=O)n(C)c2cn(CC#N)nc12 (single isomer, unassigned) [Compound A224a]
26 | 4.94 | 4.15 | CC[C@H]1CN(C(C)c2ccc(F)cc2C#N)[C@H](CC)CN1c1cc(=O)n(C)c2cn(CC#N)nc12 (single isomer, unassigned) [Compound A224b]
27 | > 10 | > 10 | CC[C@H]1CN(C(C)c2c(C)cnn2CC)[C@H](CC)CN1c1cc(=O)n(C)c2cn(CC#N)nc12 (single isomer, unassigned) [Compound A227a]
28 | 0.691 | > 10 | CC[C@H]1CN(C(C)c2c(C)cnn2CC)[C@H](CC)CN1c1cc(=O)n(C)c2cn(CC#N)nc12 (single isomer, unassigned) [Compound A227b]
29 | 1.44 | > 10 | CC[C@H]1CN(C(C)c2nc3cccc(C(F)(F)F)c3n2CC)[C@H](CC)CN1c1cc(=O)n(C)c2cn(CC#N)nc12 (single isomer, unassigned) [Compound A230a]
30 | 0.494 | 6.2 | CC[C@H]1CN(C(C)c2nc3cccc(C(F)(F)F)c3n2CC)[C@H](CC)CN1c1cc(=O)n(C)c2cn(CC#N)nc12 (single isomer, unassigned) [Compound A230b]
31 | > 10 | 1.12 | CC[C@H]1CN(C(C)c2ccc(C(F)(F)F)cc2F)[C@H](CC)CN1c1cc(=O)n(C)c2c[nH]nc12 (single isomer, unassigned) [Compound A231a]
32 | > 10 | 0.303 | CC[C@H]1CN(C(C)c2ccc(C(F)(F)F)cc2F)[C@H](CC)CN1c1cc(=O)n(C)c2c[nH]nc12 (single isomer, unassigned) [Compound A231b]
33 | > 10 | > 10 | CC(c1ccc(F)cc1C(F)(F)F)N1C[C@H](C)N(c2cc(=O)n(C)c3cn(CC#N)nc23)C[C@H]1C (single isomer, unassigned) [Compound A236a]
34 | 0.178 | 77.4 | CC(c1ccc(F)cc1C(F)(F)F)N1C[C@H](C)N(c2cc(=O)n(C)c3cn(CC#N)nc23)C[C@H]1C (single isomer, unassigned) [Compound A236b]
35 | 0.256 | 1.24 | CC#CCn1cc2c(n1)c(N1C[C@@H](CC)N(C(C)c3ccc(F)cc3C(F)(F)F)C[C@@H]1CC)cc(=O)n2C (single isomer, unassigned) [Compound A238b]
